According to ChEMBL document CHEMBL1649310, “Complete nucleotide sequence of Klebsiella pneumoniae multidrug resistance plasmid pKP048, carrying blaKPC-2, blaDHA-1, qnrB4, and armA” (2010):
≈ marks a conversion by molar mass, not a printed value.

How the values were obtained:
Type in all cases: functional
Escherichia coli [1] = test: Antimicrobial activity against lacZ-negative, Nalidixic acid-, rifampicin-resistant Escherichia coli EC600 by Etest
Klebsiella pneumoniae [2] = test: Antimicrobial activity against Klebsiella pneumoniae isolate 048 expressing beta-lactamase KPC-2, DHA-1, qnrB4 and armA by Etest
Escherichia coli [3] = test: Antimicrobial activity against Escherichia coli isolate CKP048 transconjugant harboring beta-lactamase KPC-2, DHA-1, qnrB4 and armA by Etest
Escherichia coli [4] = test: Antimicrobial activity against Escherichia coli isolate CKP048 transconjugant harboring beta-lactamase KPC-2, DHA-1, qnrB4 and armA by Etest in presence of beta-lactamase inhibitor Tazobactam
Klebsiella pneumoniae [5] = test: Antimicrobial activity against Klebsiella pneumoniae isolate 048 expressing beta-lactamase KPC-2, DHA-1, qnrB4 and armA by Etest in presence of beta-lactamase inhibitor Tazobactam
Escherichia coli [6] = test: Antimicrobial activity against lacZ-negative, Nalidixic acid-, rifampicin-resistant Escherichia coli EC600 by Etest in presence of beta-lactamase inhibitor Tazobactam

Row | Compound | MIC (Escherichia coli [1]) | MIC (Klebsiella pneumoniae [2]) | MIC (Escherichia coli [3]) | MIC (Escherichia coli [4]) | MIC (Klebsiella pneumoniae [5]) | MIC (Escherichia coli [6])
1 | NCC[C@H](O)C(=O)N[C@@H]1C[C@H](N)[C@@H](O[C@H]2O[C@H](CN)[C@@H](O)[C@H](O)[C@H]2O)[C@H](O)[C@H]1O[C@H]1O[C@H](CO)[C@@H](O)[C@H](N)[C@H]1O [AMIKACIN] | 1 µg/mL (≈ 1.71 µM) | > 256 µg/mL | > 256 µg/mL | – | – | –
2 | C[C@@H](O)[C@H]1C(=O)N2C(C(=O)O)=C(S[C@@H]3CN[C@H](C(=O)Nc4cccc(C(=O)O)c4)C3)[C@H](C)[C@H]12 | 0.016 µg/mL (≈ 0.0336 µM) | 32 µg/mL (≈ 67.3 µM) | 8 µg/mL (≈ 16.8 µM) | – | – | –
3 | CCN1CCN(C(=O)N[C@@H](C(=O)N[C@@H]2C(=O)N3[C@@H]2SC(C)(C)[C@@H]3C(=O)O)c2ccccc2)C(=O)C1=O [PIPERACILLIN] | – | – | – | > 256 µg/mL | > 256 µg/mL | 2 µg/mL
4 | C[C@@H](O)[C@H]1C(=O)N2C(C(=O)O)=C(S[C@@H]3CN[C@H](C(=O)N(C)C)C3)[C@H](C)[C@H]12 [MEROPENEM] | 0.094 µg/mL (≈ 0.245 µM) | > 32 µg/mL | 2 µg/mL (≈ 5.22 µM) | – | – | –
5 | COLISTIN | 0.25 µg/mL | 0.38 µg/mL | 0.38 µg/mL | – | – | –
6 | CN(C)c1cc(NC(=O)CNC(C)(C)C)c(O)c2c1C[C@H]1C[C@H]3[C@H](N(C)C)C(O)=C(C(N)=O)C(=O)[C@@]3(O)C(O)=C1C2=O [TIGECYCLINE] | 0.125 µg/mL (≈ 0.213 µM) | 0.38 µg/mL (≈ 0.649 µM) | 0.125 µg/mL (≈ 0.213 µM) | – | – | –
7 | CO[C@@]1(NC(=O)Cc2cccs2)C(=O)N2C(C(=O)O)=C(COC(N)=O)CS[C@@H]21 [CEFOXITIN] | 2 µg/mL (≈ 4.68 µM) | 256 µg/mL (≈ 599 µM) | 128 µg/mL (≈ 299 µM) | – | – | –
8 | CC(C)(O/N=C(\C(=O)N[C@@H]1C(=O)N2C(C(=O)[O-])=C(C[n+]3ccccc3)CS[C@H]12)c1csc(N)n1)C(=O)O [CEFTAZIDIME] | 0.064 µg/mL (≈ 0.117 µM) | 96 µg/mL (≈ 176 µM) | 32 µg/mL (≈ 58.5 µM) | – | – | –
9 | C[C@@H](O)[C@H]1C(=O)N2C(C(=O)O)=C(SCCNC=N)C[C@H]12 [IMIPENEM ANHYDROUS] | 0.25 µg/mL (≈ 0.835 µM) | > 32 µg/mL | 3 µg/mL (≈ 10 µM) | – | – | –
